Assay results from the supplement of paper PMC10307832.

Key:
Assay in all cases: relative viability (nuclei count vs DMSO), 5 days (fraction); higher = more cells survive
GSK-J4 + Pemetrexed = compound: CCOC(=O)CCNc1cc(N2CCc3ccccc3CC2)nc(-c2ccccn2)n1 [GSK-J4] + Nc1nc2[nH]cc(CCc3ccc(C(=O)N[C@@H](CCC(=O)O)C(=O)O)cc3)c2c(=O)[nH]1 [Pemetrexed] (partner 0.2 µM)
In short: (§1)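 The day after seeding in 1536-well plates, lung cancer cell lines were treated by pin tool with a single drug, or with a fixed anchor-drug dose together with five library-drug doses (not always all listed) in √10 steps. After 5 days, a combined fix-and-stain solution (final 0.05% Triton X-100, 1% formaldehyde, 1 ug/ml Hoechst) was added. Nuclei counted on 4× images gave relative viability as treated counts over vehicle counts, reported as the median of duplicate plates.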

AZ3146 + OSI-027 = compound: CN1CCC(CC1)OC2=CC(=C(C=C2)NC3=NC=C4C(=N3)N(C(=O)N4C)C5CCCC5)OC [AZ3146] + COc1cccc2cc(-c3nc([C@H]4CC[C@H](C(=O)O)CC4)n4ncnc(N)c34)[nH]c12 [OSI-027] (partner 0.5 µM)
In short: as §1

AZ3146 + Decitabine = compound: CN1CCC(CC1)OC2=CC(=C(C=C2)NC3=NC=C4C(=N3)N(C(=O)N4C)C5CCCC5)OC [AZ3146] + Nc1ncn([C@H]2C[C@H](O)[C@@H](CO)O2)c(=O)n1 [Decitabine] (partner 2 µM)
In short: as §1

AZ3146 + Olaparib = compound: CN1CCC(CC1)OC2=CC(=C(C=C2)NC3=NC=C4C(=N3)N(C(=O)N4C)C5CCCC5)OC [AZ3146] + O=C(c1cc(Cc2n[nH]c(=O)c3ccccc23)ccc1F)N1CCN(C(=O)C2CC2)CC1 [Olaparib] (partner 8 µM)
In short: as §1

| Cell Line | relative viability (GSK-J4 + Pemetrexed; first compound 0.5 µM) | relative viability (GSK-J4 + Pemetrexed; first compound 1.581 µM) | relative viability (GSK-J4 + Pemetrexed; first compound 5 µM) | relative viability (GSK-J4 + Pemetrexed; first compound 15.81 µM) | relative viability (GSK-J4 + Pemetrexed; first compound 50 µM) | relative viability (AZ3146 + OSI-027; first compound 0.08 µM) | relative viability (AZ3146 + OSI-027; first compound 0.253 µM) | relative viability (AZ3146 + OSI-027; first compound 0.8 µM) | relative viability (AZ3146 + OSI-027; first compound 2.53 µM) | relative viability (AZ3146 + OSI-027; first compound 8 µM) | relative viability (AZ3146 + Decitabine; first compound 0.08 µM) | relative viability (AZ3146 + Decitabine; first compound 0.253 µM) | relative viability (AZ3146 + Decitabine; first compound 0.8 µM) | relative viability (AZ3146 + Decitabine; first compound 2.53 µM) | relative viability (AZ3146 + Decitabine; first compound 8 µM) | relative viability (AZ3146 + Olaparib; first compound 0.08 µM) | relative viability (AZ3146 + Olaparib; first compound 0.253 µM) | relative viability (AZ3146 + Olaparib; first compound 0.8 µM) | relative viability (AZ3146 + Olaparib; first compound 2.53 µM) | relative viability (AZ3146 + Olaparib; first compound 8 µM) |
| --- | --- | --- | --- | --- | --- | --- | --- | --- | --- | --- | --- | --- | --- | --- | --- | --- | --- | --- | --- | --- |
| HCC-827 | 0.248 | 0.26 | 0.258 | 0.229 | 0.285 | 0.84 | 0.763 | 0.807 | 0.786 | 0.726 | 0.308 | 0.364 | 0.31 | 0.3 | 0.347 | 0.624 | 0.612 | 0.625 | 0.568 | 0.785 |
| IA-LM |  |  |  |  |  |  |  |  |  |  |  |  |  |  |  | 0.775 | 0.808 | 0.91 | 0.919 | 0.486 |
| NCI-H1623 |  |  |  |  |  | 0.39 | 0.482 | 0.458 | 0.405 | 0.402 |  |  |  |  |  |  |  |  |  |  |
| NCI-H3122 | 0.205 | 0.201 | 0.201 | 0.206 | 0.19 | 1.07 | 1.03 | 0.776 | 0.92 | 0.729 | 0.475 | 0.44 | 0.42 | 0.426 | 0.514 | 0.582 | 0.611 | 0.543 | 0.615 | 0.645 |
| RERF-LC-KJ | 0.472 | 0.47 | 0.448 | 0.44 | 0.442 | 0.669 | 0.548 | 0.571 | 0.575 | 0.398 | 0.69 | 0.704 | 0.731 | 0.73 | 0.381 | 0.94 | 0.833 | 0.902 | 0.852 | 0.462 |
| NCI-H1703 |  |  |  |  |  |  |  |  |  |  |  |  |  |  |  | 0.424 | 0.383 | 0.517 | 0.346 | 0.402 |
| HCC-15 | 0.225 | 0.225 | 0.217 | 0.209 | 0.245 | 0.689 | 0.667 | 0.481 | 0.773 | 0.578 | 0.529 | 0.59 | 0.642 | 0.678 | 0.39 | 0.618 | 0.737 | 0.726 | 0.725 | 0.648 |
| NCI-H1666 | 0.864 | 0.665 | 0.765 | 0.882 | 0.791 | 0.866 | 0.881 | 0.922 | 0.806 | 0.839 | 0.666 | 0.706 | 0.679 | 0.673 | 0.711 | 0.719 | 0.79 | 0.741 | 0.75 | 0.741 |
| NCI-H1395 | 0.894 | 0.73 | 0.707 | 0.764 | 0.707 | 0.569 | 0.533 | 0.564 | 0.701 | 0.633 | 0.642 | 0.746 |  | 0.864 | 0.849 | 0.485 | 0.532 |  | 0.568 | 0.552 |
| SK-LU-1 | 0.931 | 0.877 | 0.85 | 0.876 | 0.717 | 0.358 | 0.326 | 0.304 | 0.342 | 0.357 | 0.558 | 0.684 | 0.552 | 0.647 | 0.692 | 0.452 | 0.496 | 0.414 | 0.445 | 0.441 |
| NCI-H1299 |  |  |  |  |  |  |  |  |  |  |  |  |  |  |  | 0.932 | 0.941 | 0.944 | 0.938 | 0.789 |
| NCI-H1563 | 0.738 | 1.26 | 0.717 | 0.698 | 0.76 | 0.684 | 0.731 | 0.765 | 0.746 | 0.696 |  |  |  |  |  |  |  |  |  |  |
| HOP-62 | 0.316 | 0.3 | 0.324 | 0.329 | 0.364 | 0.755 | 0.796 | 0.742 | 0.857 | 0.866 | 0.22 | 0.195 | 0.207 | 0.248 | 0.203 | 0.48 | 0.345 | 0.44 | 0.361 | 0.359 |
| NCI-H1651 | 0.587 | 0.597 | 0.595 | 0.518 | 0.56 | 0.657 | 0.745 | 0.66 | 0.692 | 0.639 | 0.532 | 0.634 | 0.549 | 0.543 | 0.617 | 0.191 | 0.185 | 0.2 | 0.214 | 0.202 |
| HCC-366 | 0.148 | 0.145 |  | 0.229 | 0.169 | 0.781 | 0.85 | 0.863 | 0.865 | 0.884 | 0.342 | 0.39 | 0.296 | 0.352 | 0.321 | 0.304 | 0.388 | 0.401 | 0.399 | 0.302 |
| EMC-BAC-2 | 0.414 | 0.362 |  | 0.441 | 0.477 | 0.343 | 0.371 | 0.418 | 0.379 | 0.375 |  |  | 1.09 | 1.02 | 0.907 | 0.407 | 0.522 | 0.5 | 0.531 | 0.432 |
| NCI-H2228 | 0.335 | 0.328 | 0.342 | 0.36 | 0.364 | 0.484 | 0.579 | 0.498 | 0.615 | 0.429 |  |  |  |  |  | 0.873 | 0.632 | 0.672 | 0.503 | 0.544 |
| LK-2 | 0.281 | 0.239 | 0.329 | 0.226 | 0.172 | 0.227 | 0.181 | 0.146 | 0.206 | 0.178 |  | 0.372 | 0.284 | 0.319 | 0.337 | 0.61 | 0.586 | 0.559 | 0.672 | 0.831 |
| NCI-H1650 | 0.439 | 0.303 | 0.392 | 0.36 | 0.331 | 0.474 | 0.622 | 0.515 | 0.607 | 0.395 | 0.377 | 0.44 | 0.366 | 0.44 | 0.367 | 0.857 | 0.722 | 0.752 | 0.736 | 0.621 |
| Calu-6 |  |  |  |  |  |  |  |  |  |  |  |  |  |  |  | 0.55 | 0.505 | 0.535 | 0.551 | 0.5 |
| ABC-1 |  |  |  |  |  | 0.466 | 0.484 | 0.454 | 0.614 | 0.472 | 1.02 | 1.04 | 1.33 | 1.05 | 1.09 | 0.744 | 0.707 | 0.714 | 0.78 | 0.606 |
